Measurements: patent publication US11845724B2, “USP30 inhibitors and uses thereof” (Vincere Biosciences, Inc., priority 2019, dated 2023)
Several values for one entry are separate records, joined by “and”; a condition that tells them apart may be missing. Equal values may be shown once. Read-outs that look alike come from different tables or passages of the source.

Assays:
USP30 [1] = biological target: T1, USP30 (Homo sapiens (Human), UniProt Q70CQ3); assay: Dundee MALDI-TOF mass spectrometry assay (IC50); type: biochemical; details: USP30 25 ng/μl, K48-linked diubiquitin 5.6 μM
T1 sequence (Q70CQ3 whole entry): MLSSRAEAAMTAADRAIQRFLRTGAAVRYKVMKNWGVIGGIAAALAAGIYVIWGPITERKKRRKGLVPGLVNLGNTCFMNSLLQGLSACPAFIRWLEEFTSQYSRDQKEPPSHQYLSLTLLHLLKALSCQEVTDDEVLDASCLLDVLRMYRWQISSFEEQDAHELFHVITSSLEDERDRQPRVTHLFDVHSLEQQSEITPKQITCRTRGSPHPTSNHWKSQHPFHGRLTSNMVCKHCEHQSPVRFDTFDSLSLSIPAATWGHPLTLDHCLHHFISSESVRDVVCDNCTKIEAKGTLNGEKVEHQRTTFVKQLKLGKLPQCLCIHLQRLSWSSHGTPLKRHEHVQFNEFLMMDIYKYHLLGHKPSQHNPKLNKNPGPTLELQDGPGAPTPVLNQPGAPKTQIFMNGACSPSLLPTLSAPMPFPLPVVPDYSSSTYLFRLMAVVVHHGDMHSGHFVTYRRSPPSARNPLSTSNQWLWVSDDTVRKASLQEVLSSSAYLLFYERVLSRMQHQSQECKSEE
Summary of the method: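 USP30 (25 ng/μl) preincubated with compound 5 min at RT in Tris/BSA/DTT buffer, then K48-linked diubiquitin (5.6 μM) added for 45 min at RT. Stopped with 2% TFA; cleavage quantified by MALDI-TOF mass spectrometry to give IC50.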

USP30 [2] = biological target: T1, USP30; assay: Dundee MALDI-TOF mass spectrometry assay (% DUB activity remaining at 1 μM); type: biochemical; details: % DUB activity remaining at compound concentration of 1 μM; avg; read-out: Dundee % Activity at 1 μM (avg in vitro MS assay)
Method: Compounds were tested in a MALDI-TOF assay based on the paper by Ritorto et al. (Ritorto et al. Screening of DUB activity and specificity by MALDI-TOF mass spectrometry. Nat. Commun. 5:4763).
USP30 (25 ng/μl) tested against K48-linked diubiquitin (5.6 μM). USP30 was diluted in a buffer containing 40 mM Tris, 0.01% BSA, 1 mM DTT and K48 in 40 mM Tris, 0.01% BSA.
The compounds were pre-incubated with the USP30 for 5 mins at room temp before the K48 dimer addition. The assay mixture was then incubated for 45 mins at room temp. The assay was stopped by the addition of TFA to a final concentration of 2% (v/v).
Acidified samples of the DUB assays were mixed with 0.5 mM 15N-ubiquitin and then with one part of 2% (v/v) TFA and one part of 2,5 DHAP matrix solution (7.6 mg of 2,5 DHAP in […] ethanol and […] of an aqueous 12 mg ml 1 diammonium hydrogen citrate). Then 250 nl of these solutions were spotted onto an MTP AnchorChip 1,536 TF and this is analysed on the Bruker rapifleX MALDI-TOF.
Table 22 presents the Dundee MALDI-TOF values expressed as % DUB activity remaining at a compound concentration of 1 μM.

[3] = biological target: recombinant USP30 (amino acids 57-517 of the human sequence) (Homo sapiens (Human), UniProt Q70CQ3); assay: In vitro USP30 biochemical assay (Ubiquitin-Rhodamine)
recombinant USP30 (amino acids 57-517 of the human sequence), sequence (Q70CQ3 57-517): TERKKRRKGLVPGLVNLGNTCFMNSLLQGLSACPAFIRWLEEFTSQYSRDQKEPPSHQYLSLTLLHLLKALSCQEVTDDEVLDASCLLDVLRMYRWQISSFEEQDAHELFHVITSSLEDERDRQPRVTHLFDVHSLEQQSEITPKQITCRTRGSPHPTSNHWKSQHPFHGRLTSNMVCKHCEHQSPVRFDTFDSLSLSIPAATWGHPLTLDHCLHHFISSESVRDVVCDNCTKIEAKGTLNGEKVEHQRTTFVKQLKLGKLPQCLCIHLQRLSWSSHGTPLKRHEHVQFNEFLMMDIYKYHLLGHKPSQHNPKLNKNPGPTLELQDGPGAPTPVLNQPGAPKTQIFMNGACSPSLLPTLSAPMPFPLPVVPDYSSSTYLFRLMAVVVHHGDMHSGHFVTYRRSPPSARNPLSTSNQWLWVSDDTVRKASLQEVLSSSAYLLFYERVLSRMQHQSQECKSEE
Method: In vitro biochemical assay to establish the potency of compounds for USP30 inhibition: a 384-well plate assay using a fluorophore tagged substrate of USP30 was used for in vitro screening of compounds. Each compound was tested at 10 different concentrations (0.5 to 10,000 nM) in duplicate wells. Compounds were pre-incubated at 25° C. for 30 min in an assay buffer consisting of 20 mM Tris/HCl, pH8.0, 1 mM GSH, 0.01% Triton X-100, 0.03% BGG and 1.5 nM recombinant USP30 (amino acids 57-517 of the human sequence with a C-terminal 6-His tag). Following the pre-incubation, Ubiquitin-Rhodamine substrate dissolved in the assay buffer was added at the final concentration of 25 nM to each well and plates were incubated at 25° C. for an additional 75 minutes. The reaction was stopped by adding 10 mM citric acid and fluorescence was read using excitation wavelength 485 nm, emission of 535 nm. Data were analyzed using Graph Pad Prism software with a four-parameter (floating slope) fit to log concentration data to determine IC50s.

[4] = Dundee IC50 μM (avg in vitro MS assay)
[5] = avg, read-out: Dundee IC50 μM (avg in vitro MS assay)
[6] = USP30 IC50 μM (avg), Ubiquitin-Rhodamine substrate 25 nM, 1.5 nM recombinant USP30

SMILES	IC50 (USP30 [1]; [4]) [µM]	activity at 1 µM (USP30 [2]) [%]	IC50 (USP30 [1]; [5]) [µM]	IC50 [3, 6]	IC50 ([3]; read-out: USP30 IC50 μM (avg), Ubiquitin-Rhodamine substrate 25 nM, 1.5 nM recombinant USP30) [µM]
CC(C)(C)NS(=O)(=O)c1ccc(NC(=O)C2Cc3cccnc3N2C(=O)c2ccc(F)cc2)cc1 (centres unmarked) [Compound I-57, N-(4-(N-tert-butylsulfamoyl)phenyl)-1-(4-fluorobenzoyl)-2,3-dihydro-1H-pyrrolo[2,3-b]pyridine-2-carboxamide]	> 1	> 75			
C[C@@H](NS(=O)(=O)c1ccc(NC(=O)[C@H](Cc2ccccc2)NC(=O)c2ccc(F)cc2)cc1)C(F)(F)F [Compound I-26, 4-fluoro-N-((S)-1-oxo-3-phenyl-1-(4-(N-((R)-1,1,1-trifluoropropan-2-yl)sulfamoyl)phenylamino)propan-2-yl)benzamide]		0 to 25	< 0.05	0.05 to 1 µM	
CC(C)(C)NS(=O)(=O)c1ccc(OC[C@H](Cc2ccccc2)NC(=O)c2ccc(F)cc2)cc1 [Compound I-45, (S)-N-(1-(4-(N-tert-butylsulfamoyl)phenoxy)-3-phenylpropan-2-yl)-4-fluorobenzamide]		> 75	> 1		
CN1CC(NS(=O)(=O)c2ccc(NC(=O)[C@H](Cc3ccccc3)NC(=O)c3ccc(F)cc3)cc2)C1 [Compound I-65, (S)-4-fluoro-N-(1-(4-(N-(1-methylazetidin-3-yl)sulfamoyl)phenylamino)-1-oxo-3-phenylpropan-2-yl)benzamide]		0 to 25	0.05 to 1	0.05 to 1 µM	
CC(C)(C)N[S+]([O-])c1ccc(NC(=O)[C@H](Cc2ccccc2)NC(=O)c2ccc(F)cc2)cc1 (stereo partly drawn) [Compound I-15, N-((2S)-1-(4-(N-tert-Butylsulfinamoyl)phenylamino)-1-oxo-3-phenylpropan-2-yl)-4-fluorobenzamide]		25 to 50	0.05 to 1		
CN(C(=O)[C@H](Cc1ccccc1)NC(=O)c1ccc(F)cc1)c1ccc(S(=O)(=O)NC(C)(C)C)cc1 [Compound I-36, (S)-N-(1-((4-(N-tert-butylsulfamoyl)phenyl)(methyl)amino)-1-oxo-3-phenylpropan-2-yl)-4-fluorobenzamide]		> 75	> 1		
CC(C)(C)NC(c1ccc(NC(=O)[C@H](Cc2ccccc2)NC(=O)c2ccc(F)cc2)cc1)C(F)(F)F (stereo partly drawn) [Compound I-18, N-((2S)-1-(4-(1-(tert-butylamino)-2,2,2-trifluoroethyl)phenylamino)-1-oxo-3-phenylpropan-2-yl)-4-fluorobenzamide]	> 10	50 to 75			> 10
O=C(N[C@@H](Cc1ccccc1)C(=O)Nc1ccc(S(=O)(=O)NC2COC2)cc1)c1ccc(F)cc1 [Compound I-64, (S)-4-fluoro-N-(1-(4-(N-oxetan-3-ylsulfamoyl)phenylamino)-1-oxo-3-phenylpropan-2-yl)benzamide]		0 to 25	< 0.05	0.05 to 1 µM	
CC(C)(C)NS(=O)(=O)c1ccc(NC(=O)C2(NC(=O)c3ccc(F)cc3)CC2c2ccccc2)cc1 (racemic) [Compound I-82, racemic-N-(Z)-(1-(4-(N-tert-butylsulfamoyl)phenylcarbamoyl)-2-phenylcyclopropyl)-4-fluorobenzamide]	> 1	> 75			
CN(C(=O)c1ccc(F)cc1)[C@@H](Cc1ccccc1)C(=O)Nc1ccc(S(=O)(=O)NC(C)(C)C)cc1 [Compound I-35, (S)-N-(1-(4-(N-tert-Butylsulfamoyl)phenylamino)-1-oxo-3-phenylpropan-2-yl)-4-fluoro-N-methylbenzamide]		0 to 25	0.05 to 1	0.05 to 1 µM and 1 to 10 µM	
C[C@H](NS(=O)(=O)c1ccc(NC(=O)[C@H](Cc2ccccc2)NC(=O)c2ccc(F)cc2)cc1)C1CC1 [Compound I-27, N-((S)-1-(4-(N-((S)-1-cyclopropylethyl)sulfamoyl)phenylamino)-1-oxo-3-phenylpropan-2-yl)-4-fluorobenzamide]		0 to 25	< 0.05		
CCNS(=O)(=O)c1ccc(NC(=O)C2(NC(=O)c3ccccc3)CCc3ccccc3C2)cc1 (centres unmarked) [Compound I-47, 2-benzamido-N-(4-(N-ethylsulfamoyl)phenyl)-1,2,3,4-tetrahydronaphthalene-2-carboxamide]		> 75	> 1		
CCNS(=O)(=O)c1ccc(NC(=O)C2Cc3ccccc3CN2C(=O)c2ccc(F)cc2)cc1 (centres unmarked) [Compound I-49, N-(4-(N-ethylsulfamoyl)phenyl)-2-(4-fluorobenzoyl)-1,2,3,4-tetrahydroisoquinoline-3-carboxamide]		> 75	1 to 10		
CC(C)(C)NS(=O)(=O)c1ccc(NC(=O)C2(NC(=O)c3ccc(F)cc3)Cc3ccccc3C2)cc1 [Compound I-19, N-(4-(N-tert-butylsulfamoyl)phenyl)-2-(4-fluorobenzamido)-2,3-dihydro-1H-indene-2-carboxamide]		25 to 50	0.05 to 1	0.05 to 1 µM	
CC(C)(C)N=S(C)(=O)c1ccc(NC(=O)[C@H](Cc2ccccc2)NC(=O)c2ccc(F)cc2)cc1 (stereo partly drawn) [Compound I-17, N-((2S)-1-((4-(N-(tert-butyl)-S-methylsulfonimidoyl)phenyl)amino)-1-oxo-3-phenylpropan-2-yl)-4-fluorobenzamide]	> 1	> 75			
CC(C)(C)NS(=O)(=O)c1ccc(NC[C@H](Cc2ccccc2)NC(=O)c2ccc(F)cc2)cc1 [Compound I-44, (S)-N-(1-(4-(N-tert-butylsulfamoyl)phenylamino)-3-phenylpropan-2-yl)-4-fluorobenzamide]		> 75	> 1		
CC(C)(C)NS(=O)(=O)c1ccc(NC(=O)C2(NC(=O)c3ccc(F)cc3)CC2c2ccccc2)cc1 (racemic) [Compound I-83, racemic-N-((E)-1-(4-(N-tert-butylsulfamoyl)phenylcarbamoyl)-2-phenylcyclopropyl)-4-fluorobenzamide]		> 75	> 1		
CC(C)(C)NS(=O)(=O)c1ccc(NC[C@@H](O)[C@H](Cc2ccccc2)NC(=O)c2ccc(F)cc2)cc1 [Compound I-42, N-((2S,3R)-4-(4-(N-tert-butylsulfamoyl)phenylamino)-3-hydroxy-1-phenylbutan-2-yl)-4-fluorobenzamide]		> 75	1 to 10		
CC(C)(C)NS(=O)(=O)c1ccc(NC(=O)C2(NC(=O)c3ccccc3)CCc3ccccc3C2)cc1 (centres unmarked) [Compound I-48, 2-benzamido-N-(4-(N-tert-butylsulfamoyl)phenyl)-1,2,3,4-tetrahydronaphthalene-2-carboxamide]		> 75	> 1		
CC[C@H](C)NS(=O)(=O)c1ccc(NC(=O)[C@H](Cc2ccccc2)NC(=O)c2ccc(F)cc2)cc1 [Compound I-28, N-((S)-1-((4-(N-((S)-sec-butyl)sulfamoyl)phenyl)amino)-1-oxo-3-phenylpropan-2-yl)-4-fluorobenzamide]		0 to 25	< 0.05		
O=C(N[C@@H](Cc1cccnc1)C(=O)Nc1ccc(S(=O)(=O)NC2COC2)cc1)c1ccc(F)cc1 [Compound I-66, (S)-4-fluoro-N-(1-(4-(N-oxetan-3-ylsulfamoyl)phenylamino)-1-oxo-3-(pyridin-3-yl)propan-2-yl)benzamide]		0 to 25	0.05 to 1		
CC(C)(C)NC(=O)c1ccc(NC(=O)[C@H](Cc2ccccc2)NC(=O)c2ccc(F)cc2)cc1 [Compound I-29, (S)-N-tert-butyl-4-(2-(4-fluorobenzamido)-3-phenylpropanamido)benzamide]	> 1	> 75			
